Experiments:
[1] = Time for syringe dosage forms to dissolve in warm water; format: physicochemical; conditions: shaken in warm water (approximately 40° C.)
Protocol: A similar set of sample tubes was prepared for a monkey study. Twenty-eight tubes with 11.2±0.1 g of 5 mg/g SR13668 in Solutol were prepared providing a dose of 56 mg SR13668 per tube. A set of 3-mL disposable plastic syringes were prepared containing a 5 mg dose of SR13668 in either Solutol, Vit E TPGS or 1:1 Solutol:Vit E TPGS. The syringes were prepared so the dosage form could be pushed out and dissolved in warm water to administer to monkeys by gavage. The syringes were prepared by (a) cutting off the tip-end at the 0.1 mL mark of a plastic, disposable 3-mL syringe, (b) pulling back the plunger, (c) filling the syringe by weight with the liquid melt at 65° C. to give the correct dosage and (d) allowing the formulation to harden. Each formulation contained between 3.5-4.2 mg SR13668/g matrix and approximately 1.2 g of the formulation was needed in each syringe to give a 5 mg dose. The syringes were fairly easy to make and to expel the dosage form into warm water. The doses where shaken in warm water (approximately 40° C.) and took the following amounts of time to dissolve: <1 min. for Solutol, 15 min for 1:1 Solutol:Vit E TPGS, and 37 min for Vit E TPGS.

[2] = Oral bioavailability of PEG400:Labrasol formulation in rats; conditions: rat, in vivo

**Q.** With `CCOC(=O)c1ccc2[nH]c3c(OC)c4[nH]c5ccc(C(=O)OCC)cc5c4cc3c2c1` [SR13668, 2,10-dicarbethoxy-6-methoxy-5,7-dihydro-indolo-(2,3-b)carbazole] as the compound, how does the time to dissolve ([1]; 5 mg dose of SR13668 in 1:1 Solutol:Vit E TPGS) read?
**A.** 15 min

**Q.** And the time to dissolve ([1]; 5 mg dose of SR13668 in Solutol)?
**A.** < 1 min

**Q.** And the time to dissolve ([1]; 5 mg dose of SR13668 in Vit E TPGS)?
**A.** 37 min

**Q.** And the bioavailability [2]?
**A.** < 1%

Source: US20120184590A1, “FORMULATIONS OF INDOLE-3-CARBINOL DERIVED ANTITUMOR AGENTS WITH INCREASED ORAL BIOAVAILABILITY” (UNIVERSITY OF KANSAS, priority 2009, published 2012)
